Assays:
[1] = target: T1, VEGFR3 (Homo sapiens, UniProt P35916); assay: Kinase inhibition, Mobility Shift Assay/IMAP, VEGFR3; format: biochemical
T1 construct: purchased Invitrogen PV4129
Excerpt: (§1) This assay directly monitored the ability of compounds to inhibit kinase phosphorylation by measuring non-phosphorylated and phosphorylated substrates in kinase reactions by using Mobility Shift Assays/IMAP™ analysis.
(§2) Read the conversion ratio data on CaliperEZ Reader II. Convert conversion rates into inhibition ratio data.
(§3) “Min” indicates the readout of the control well without the addition of enzymes; and “Max” indicates the readout of the control well with the addition of DMSO Fit IC50 values with XL Fit excel add-in version […].
(§4) X indicates the log value of compound concentration, and Y indicates the inhibition ratio (% inhibition).

[2] = target: T2, VEGFR1 (Homo sapiens, UniProt P17948); assay: Kinase inhibition, Mobility Shift Assay/IMAP, VEGFR1; format: biochemical
T2 construct: purchased Invitrogen PR6731B
Excerpt: as §1, §2, §3, §4

[3] = target: VEGFR2 (Homo sapiens, UniProt P35968); assay: Kinase inhibition, Mobility Shift Assay/IMAP, VEGFR2; format: biochemical; design: purchased Carna 08-191
Excerpt: as §1, §2, §3, §4

[4] = tested on: melanin; assay: Binding capacity of compounds to melanin; format: in vitro ADME, cuttlefish (Sepia officinalis); settings: cuttlefish (Sepia officinalis), melanin suspension (1 mg/mL); 1 mg/mL melanin in PBS pH 7.4, 2 μM compound, 2 h at 37° C.; read-out: Fu % (percentage of free drug)
Excerpt: Pigmented eye tissues contain melanin in intracellular melanosomes. Drugs bind to melanin to varying degrees, ranging from non-binding to extensive binding. Therefore, melanin binding is an important feature that affects drug delivery and biodistribution in the eye. The binding capacity of the compound to the melanin must be considered in the development of ophthalmic drugs.
Melanin was derived from the melanin of cuttlefish (Sepia officinalis) and was commercially available from Sigma Aldrich (St Louis, MO).
First, prepare 1 mg/mL melanin suspension with PBS (pH 7.4). As a washing step for the matrix, centrifuge the suspended particles for 5 min at 3000 rpm. Resuspend the resulting particles in a fresh PBS buffer, heat to 37° C. over continuous shaking and incubate it for 1 h. Accurately pipette 2 μL of the test stock solution (0.1 mM) into 98 μL of melanin suspension (1 mg/mL) to achieve a final incubation concentration of 2 μM. Similarly, accurately pipette 2 μL of the stock solution (0.1 mM) to 98 μL of PBS buffer (containing 0.1% BSA) as a blank control sample. Incubate the samples in a shaker (80-90 rpm) for 2 h at 37° C. Then, centrifuge the samples at room temperature. Pipette 50 μL of the supernatant and add 50 μL of precipitant (containing an internal standard). After protein precipitation of all the above samples, centrifuge the samples to collect the supernatants, dilute the supernatants with water (if necessary) and inject them for analysis. At the same time, measure the positive controls, including the high-binding compounds Sunitinib and chloroquine and the low-binding compound celecoxib. Establish an LC-MS/MS method for determining compound concentrations, and calibrate the peak area ratio of analyte/internal standard (Analyte/AIS) in the measured sample by the dilution factor to take it as an alternative concentration for the sample for data processing. The binding rate (Fb) of a compound in melanin was calculated as: […]
Ctest was the concentration of the compound in the melanin-incubated sample or the peak area ratio of the test compound to the internal standard. Ccontrol was the concentration of the compound in the blank control sample or the peak area ratio of the test compound to the internal standard. […]

[5] = target: T3, EGFR (Homo sapiens, UniProt P00533); assay: Kinase inhibition, Mobility Shift Assay/IMAP, EGFR; format: biochemical
T3 construct: purchased Carna 08-115
Excerpt: as §1, §2, §3, §4

[6] = target: T4, TIE2 (Homo sapiens, UniProt Q02763); assay: Kinase inhibition, Mobility Shift Assay/IMAP, TIE2; format: biochemical
T4 construct: purchased BPS 40270
Excerpt: as §1, §2, §3, §4

T4 sequence (Q02763 23-1124): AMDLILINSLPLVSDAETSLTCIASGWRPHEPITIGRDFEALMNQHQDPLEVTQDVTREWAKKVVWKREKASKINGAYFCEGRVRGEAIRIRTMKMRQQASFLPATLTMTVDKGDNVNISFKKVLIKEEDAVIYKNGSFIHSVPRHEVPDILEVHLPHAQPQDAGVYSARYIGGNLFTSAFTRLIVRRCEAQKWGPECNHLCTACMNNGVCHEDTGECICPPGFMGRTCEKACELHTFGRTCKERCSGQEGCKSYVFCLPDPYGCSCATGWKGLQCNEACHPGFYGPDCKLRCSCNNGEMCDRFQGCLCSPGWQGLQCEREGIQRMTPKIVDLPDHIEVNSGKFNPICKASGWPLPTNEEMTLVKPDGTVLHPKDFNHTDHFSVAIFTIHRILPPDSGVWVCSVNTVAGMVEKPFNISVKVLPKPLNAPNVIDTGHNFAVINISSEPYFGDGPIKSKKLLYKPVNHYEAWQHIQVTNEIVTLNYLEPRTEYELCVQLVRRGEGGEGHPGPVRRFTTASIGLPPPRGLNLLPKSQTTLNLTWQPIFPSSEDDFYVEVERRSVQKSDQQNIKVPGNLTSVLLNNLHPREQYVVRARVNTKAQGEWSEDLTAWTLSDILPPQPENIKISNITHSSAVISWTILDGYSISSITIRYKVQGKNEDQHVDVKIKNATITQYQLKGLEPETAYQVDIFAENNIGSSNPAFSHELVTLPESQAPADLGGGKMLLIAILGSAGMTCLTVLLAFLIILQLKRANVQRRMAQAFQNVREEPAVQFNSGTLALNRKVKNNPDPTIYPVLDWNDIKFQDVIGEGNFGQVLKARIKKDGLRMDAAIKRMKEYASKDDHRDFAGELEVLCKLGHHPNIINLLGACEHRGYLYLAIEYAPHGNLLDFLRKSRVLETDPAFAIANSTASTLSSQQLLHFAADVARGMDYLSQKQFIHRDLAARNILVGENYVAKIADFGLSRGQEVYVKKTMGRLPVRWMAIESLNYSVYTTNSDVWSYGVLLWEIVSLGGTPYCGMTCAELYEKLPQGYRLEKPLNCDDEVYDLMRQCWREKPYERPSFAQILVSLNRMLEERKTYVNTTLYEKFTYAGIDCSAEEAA
T1 sequence (P35916 25-1363): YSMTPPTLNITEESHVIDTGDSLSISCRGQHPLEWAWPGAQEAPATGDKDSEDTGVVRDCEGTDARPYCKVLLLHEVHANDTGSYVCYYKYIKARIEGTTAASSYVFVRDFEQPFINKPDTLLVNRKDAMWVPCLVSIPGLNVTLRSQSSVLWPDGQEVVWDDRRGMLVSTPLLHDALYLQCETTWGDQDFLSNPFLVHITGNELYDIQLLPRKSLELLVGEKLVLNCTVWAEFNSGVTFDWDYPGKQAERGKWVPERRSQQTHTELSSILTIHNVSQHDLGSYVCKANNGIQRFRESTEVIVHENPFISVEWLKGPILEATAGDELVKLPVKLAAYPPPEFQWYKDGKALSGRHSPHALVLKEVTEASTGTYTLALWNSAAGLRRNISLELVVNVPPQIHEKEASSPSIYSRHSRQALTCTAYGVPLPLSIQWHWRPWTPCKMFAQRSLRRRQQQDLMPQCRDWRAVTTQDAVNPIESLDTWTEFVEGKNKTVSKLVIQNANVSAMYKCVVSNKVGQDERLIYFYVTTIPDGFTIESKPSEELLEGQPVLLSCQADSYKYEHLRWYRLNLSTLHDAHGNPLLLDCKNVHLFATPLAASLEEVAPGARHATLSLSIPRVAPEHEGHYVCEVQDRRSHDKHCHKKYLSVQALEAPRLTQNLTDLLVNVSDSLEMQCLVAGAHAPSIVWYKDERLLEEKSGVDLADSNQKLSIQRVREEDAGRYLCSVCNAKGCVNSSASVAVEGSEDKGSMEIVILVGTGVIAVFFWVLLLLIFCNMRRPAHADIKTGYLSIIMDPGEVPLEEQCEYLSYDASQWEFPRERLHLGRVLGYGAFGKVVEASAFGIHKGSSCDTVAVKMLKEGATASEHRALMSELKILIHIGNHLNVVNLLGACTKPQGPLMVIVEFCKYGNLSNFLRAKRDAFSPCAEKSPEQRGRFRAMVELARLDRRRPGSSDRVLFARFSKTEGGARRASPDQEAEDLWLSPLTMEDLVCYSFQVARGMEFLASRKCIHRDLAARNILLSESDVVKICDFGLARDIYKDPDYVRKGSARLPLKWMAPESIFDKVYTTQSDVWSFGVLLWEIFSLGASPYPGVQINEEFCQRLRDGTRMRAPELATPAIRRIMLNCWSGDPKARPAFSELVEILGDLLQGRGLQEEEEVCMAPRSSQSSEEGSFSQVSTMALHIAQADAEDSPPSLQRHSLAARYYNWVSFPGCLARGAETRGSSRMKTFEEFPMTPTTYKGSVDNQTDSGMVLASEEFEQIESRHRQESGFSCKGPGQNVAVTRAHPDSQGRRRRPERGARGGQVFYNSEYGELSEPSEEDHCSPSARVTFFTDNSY
T3 sequence (P00533 669-1210 limits assumed): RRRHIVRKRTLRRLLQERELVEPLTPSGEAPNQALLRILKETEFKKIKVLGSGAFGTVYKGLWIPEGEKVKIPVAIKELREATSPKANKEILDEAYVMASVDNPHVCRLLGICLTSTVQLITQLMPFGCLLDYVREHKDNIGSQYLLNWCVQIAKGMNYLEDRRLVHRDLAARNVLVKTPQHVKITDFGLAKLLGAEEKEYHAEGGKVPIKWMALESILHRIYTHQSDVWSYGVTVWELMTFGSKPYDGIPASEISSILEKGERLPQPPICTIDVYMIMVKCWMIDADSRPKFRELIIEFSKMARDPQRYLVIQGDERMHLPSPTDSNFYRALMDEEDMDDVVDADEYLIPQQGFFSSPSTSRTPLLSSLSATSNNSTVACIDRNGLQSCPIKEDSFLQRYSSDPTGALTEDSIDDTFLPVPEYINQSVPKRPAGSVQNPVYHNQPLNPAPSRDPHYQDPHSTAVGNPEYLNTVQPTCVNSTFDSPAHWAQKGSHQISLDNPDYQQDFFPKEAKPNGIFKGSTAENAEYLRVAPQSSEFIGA
Chain of VEGFR2 (P35968 790-1356 limits assumed): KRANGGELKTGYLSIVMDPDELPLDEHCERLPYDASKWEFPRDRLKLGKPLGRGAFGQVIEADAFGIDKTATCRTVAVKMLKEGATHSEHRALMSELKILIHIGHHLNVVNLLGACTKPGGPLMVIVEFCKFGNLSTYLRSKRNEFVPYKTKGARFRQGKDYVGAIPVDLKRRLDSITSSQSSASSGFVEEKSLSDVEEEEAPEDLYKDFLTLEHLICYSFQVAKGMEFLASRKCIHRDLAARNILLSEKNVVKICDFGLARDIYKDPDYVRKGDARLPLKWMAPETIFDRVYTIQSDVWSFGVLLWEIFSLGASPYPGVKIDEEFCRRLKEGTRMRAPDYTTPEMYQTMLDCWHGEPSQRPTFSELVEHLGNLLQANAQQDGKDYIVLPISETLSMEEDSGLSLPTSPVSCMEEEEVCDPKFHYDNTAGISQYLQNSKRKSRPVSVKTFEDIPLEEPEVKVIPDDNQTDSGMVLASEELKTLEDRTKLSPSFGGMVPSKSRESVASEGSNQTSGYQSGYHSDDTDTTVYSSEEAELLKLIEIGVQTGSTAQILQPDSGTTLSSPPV
T2 sequence (P17948 27-1338): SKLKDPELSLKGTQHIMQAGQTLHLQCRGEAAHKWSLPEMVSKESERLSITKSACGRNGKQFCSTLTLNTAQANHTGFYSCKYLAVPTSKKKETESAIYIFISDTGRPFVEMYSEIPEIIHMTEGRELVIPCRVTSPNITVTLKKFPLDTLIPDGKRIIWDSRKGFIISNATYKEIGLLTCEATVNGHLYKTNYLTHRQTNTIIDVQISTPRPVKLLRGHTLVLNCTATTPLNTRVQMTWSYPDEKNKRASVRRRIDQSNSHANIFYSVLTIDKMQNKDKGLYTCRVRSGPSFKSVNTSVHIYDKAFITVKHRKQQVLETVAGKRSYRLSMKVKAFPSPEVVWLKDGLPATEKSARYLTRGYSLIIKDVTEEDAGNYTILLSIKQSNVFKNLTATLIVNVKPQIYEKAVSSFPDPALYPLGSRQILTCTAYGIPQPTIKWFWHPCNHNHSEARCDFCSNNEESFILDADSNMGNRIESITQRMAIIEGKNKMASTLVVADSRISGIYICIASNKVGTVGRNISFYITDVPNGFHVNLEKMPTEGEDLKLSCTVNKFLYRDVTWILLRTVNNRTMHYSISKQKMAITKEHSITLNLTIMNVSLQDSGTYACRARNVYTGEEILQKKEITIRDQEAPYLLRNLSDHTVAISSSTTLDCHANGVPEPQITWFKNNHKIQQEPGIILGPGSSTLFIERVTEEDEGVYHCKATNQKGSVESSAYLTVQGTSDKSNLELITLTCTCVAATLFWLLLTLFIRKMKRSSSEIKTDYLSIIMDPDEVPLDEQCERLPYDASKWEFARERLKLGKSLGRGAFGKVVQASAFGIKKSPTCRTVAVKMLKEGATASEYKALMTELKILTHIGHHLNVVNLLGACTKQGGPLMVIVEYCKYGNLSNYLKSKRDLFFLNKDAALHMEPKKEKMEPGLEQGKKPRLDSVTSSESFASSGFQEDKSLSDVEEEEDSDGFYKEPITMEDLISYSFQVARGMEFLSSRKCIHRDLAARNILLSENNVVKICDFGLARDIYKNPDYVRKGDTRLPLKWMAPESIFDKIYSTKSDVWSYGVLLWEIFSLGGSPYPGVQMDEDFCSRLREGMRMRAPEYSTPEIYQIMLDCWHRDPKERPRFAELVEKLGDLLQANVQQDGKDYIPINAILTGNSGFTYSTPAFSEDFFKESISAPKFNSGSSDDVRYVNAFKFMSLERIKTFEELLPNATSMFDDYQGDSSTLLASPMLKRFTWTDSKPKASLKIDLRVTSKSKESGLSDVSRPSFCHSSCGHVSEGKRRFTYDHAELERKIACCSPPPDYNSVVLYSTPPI

IC50 [1] [nM]	IC50 [2] [nM]	IC50 [3] [nM]	fraction unbound at 2 h, 2 μM [4]	IC50 [5] [nM]	IC50 [6] [nM]	Compound
16.1	6.08	3.68	–	–	–	NC(=O)c1c(OCc2c(F)cc(Br)cc2F)nsc1Nc1cnn(CCN2CCNCC2)c1 [Compound T050, 3-((4-bromo-2,6-difluorobenzyl)oxy)-5-((1-(2-(piperazin-1-yl)ethyl)-1H-pyrazol-4-yl)amino)isothiazole-4-carboxamide]
18.7	42.1	8.17	–	–	–	CN(C)CCCn1ncc(Nc2snc(OCc3c(F)cc(Br)cc3F)c2C(N)=O)n1 [Compound T052, 3-((4-bromo-2,6-difluorobenzyl)oxy)-5-((2-(3-(dimethylamino)propyl)-2H-1,2,3-triazol-4-yl)amino)isothiazole-4-carboxamide]
–	30	20.9	0.0225	> 60000	–	CCNC(=O)c1cccc(COc2nsc(NC(=O)NCCCCN3CCCC3)c2C(N)=O)c1 [Compound T058, 3-((3-(ethylcarbamoyl)benzyl)oxy)-5-(3-(4-(pyrrolidin-1-yl)butyl)ureido)isothiazole-4-carboxamide]
39.1	–	63	0.0871	> 60000	1000	COc1cc(COc2nsc(NC(=O)NCCCCN3CCC(F)(F)C3)c2C(N)=O)cc(OC)c1 [Compound T063, 5-(3-(4-(3,3-difluoropyrrolidin-1-yl)butyl)ureido)-3-((3,5-dimethoxybenzyl)oxy)isothiazole-4-carboxamide]
–	37.9	77.8	–	> 60000	10000	NC(=O)c1c(OCc2cccc(C(=O)NC3CC3)c2)nsc1NC(=O)NCCN1CCCC1 [Compound T066, 3-((3-(cyclopropylcarbamoyl)benzyl)oxy)-5-(3-(2-(pyrrolidin-1-yl)ethyl)ureido)isothiazole-4-carboxamide]
48.8	44	23	0.0391	24300	–	CN1CCC(CCNC(=O)Nc2snc(OCc3ccc4c(c3F)OCC4)c2C(N)=O)CC1 [Compound T075, 3-((7-fluoro-2,3-dihydrobenzofuran-6-yl)methoxy)-5-(3-(2-(1-methylpiperidin-4-yl)ethyl)ureido)isothiazole-4-carboxamide]
23.8	26.7	12.6	0.0311	43600	–	CCN1CCC(CCNC(=O)Nc2snc(OCc3ccc4c(c3)OCC4)c2C(N)=O)CC1 [Compound T076, 3-(2,3-dihydrobenzofuran-6-ylmethoxy)-5-[2-(1-ethyl-4-piperidyl)ethylcarbamoylamino]isothiazole-4-carboxamide]
44	33	7.01	0.0385	52000	–	CN1CCN(CCCNC(=O)Nc2snc(OCc3ccc4c(c3)OCC4)c2C(N)=O)CC1 [Compound T077, 3-(2,3-dihydrobenzofuran-6-ylmethoxy)-5-[3-(4-methylpiperazin-1-yl)propylcarbamoylamino]isothiazole-4-carboxamide]
–	–	17.2	0.031	–	596	COc1ccc(F)c(COc2nsc(NC(=O)NCCCCN3CCCC3)c2C(N)=O)c1 [Compound T092, 3-[(2-fluoro-5-methoxy-phenyl)methoxy]-5-(4-pyrrolidin-1-ylbutylcarbamoylamino)isothiazole-4-carboxamide]
–	–	9.1	0.0481	> 60000	413	COc1cc(COc2nsc(NC(=O)NCCCCN3CCCC3)c2C(N)=O)c(F)c(OC)c1 [Compound T094, 3-[(2-fluoro-3,5-dimethoxy-phenyl)methoxy]-5-(4-pyrrolidin-1-ylbutylcarbamoylamino)isothiazole-4-carboxamide]
–	–	5.5	0.0235	9890	142	CN1CC[C@@H](CCNC(=O)Nc2snc(OCc3cc4c(cc3F)CCO4)c2C(N)=O)C1 [Compound T102, 3-[(5-fluoro-2,3-dihydrobenzofuran-6-yl)methoxy]-5-[2-[(3R)-1-methylpyrrolidin-3-yl]ethylcarbamoylamino]isothiazole-4-carboxamide]
–	–	8.57	0.0403	9140	124	COc1ccc(F)c(COc2nsc(NC(=O)NCCCN3CCN(C)CC3)c2C(N)=O)c1F [Compound T107, 3-[(2,6-difluoro-3-methoxy-phenyl)methoxy]-5-[3-(4-methylpiperazin-1-yl)propylcarbamoylamino]isothiazole-4-carboxamide]
–	–	0.72	0.0271	–	621	NC(=O)c1c(OCc2cc(C(=O)NC3CC3)ccc2F)nsc1NC(=O)NCCC1CCN(CCF)CC1 [Compound T108, 3-[[5-(cyclopropylcarbamoyl)-2-fluoro-phenyl]methoxy]-5-[2-[1-(2-fluoroethyl)-4-piperidyl]ethylcarbamoylamino]isothiazole-4-carboxamide]
–	–	47	0.0173	40700	397	COc1ccc(F)c(COc2nsc(NC(=O)NCCCN3CC[C@H](F)C3)c2C(N)=O)c1F [Compound T120, 3-[(2,6-difluoro-3-methoxy-phenyl)methoxy]-5-[3-[(3S)-3-fluoropyrrolidin-1-yl]propylcarbamoylamino]isothiazole-4-carboxamide]
–	–	13.5	0.0402	9710	161	COc1ccc(F)c(COc2nsc(NC(=O)NCCCCN3CCC(F)CC3)c2C(N)=O)c1F [Compound T125, 3-[(2,6-difluoro-3-methoxy-phenyl)methoxy]-5-[4-(4-fluoro-1-piperidyl)butylcarbamoylamino]isothiazole-4-carboxamide]
–	–	41	0.0709	13700	471	COc1ccc(F)c(COc2nsc(NC(=O)NCCCCN3CCC(F)(F)CC3)c2C(N)=O)c1F [Compound T130, 3-[(2,6-difluoro-3-methoxy-phenyl)methoxy]-5-[4-(4,4-difluoro-1-piperidyl)butylcarbamoylamino]isothiazole-4-carboxamide]
–	–	14.7	0.0363	19200	163	COc1ccc(F)c(COc2nsc(NC(=O)NCCCCN3CCOCC3)c2C(N)=O)c1F [Compound T132, 3-[(2,6-difluoro-3-methoxy-phenyl)methoxy]-5-(4-morpholinobutylcarbamoylamino)isothiazole-4-carboxamide]
–	–	1.9	0.02	> 60000	97	COc1cc(OC)c(F)c(COc2nsc(NC(=O)NCCCCN3CC[C@@H](O)C3)c2C(N)=O)c1F [Compound T135, 3-[(2,6-difluoro-3,5-dimethoxy-phenyl)methoxy]-5-[4-[(3R)-3-hydroxypyrrolidin-1-yl]butylcarbamoylamino]isothiazole-4-carboxamide]
–	–	0.45	–	15600	1740	NC(=O)c1c(OCc2cc(C(=O)NC3CC3)ccc2Cl)nsc1NC(=O)NCCCN1CC[C@H](F)C1 [Compound T166, 3-[[2-chloro-5-(cyclopropylcarbamoyl)phenyl]methoxy]-5-[3-[(3S)-3-fluoropyrrolidin-1-yl]propylcarbamoylamino]isothiazole-4-carboxamide]
–	–	16.4	–	> 60000	> 60000	CC(C)(C)[Si](C)(C)OCCCNC(=O)Nc1snc(OCc2cc(C(=O)NC3CC3)ccc2F)c1C(N)=O [Compound T169, 5-[3-[tert-butyl(dimethyl)silyl]oxypropylcarbamoylamino]-3-[[5-(cyclopropylcarbamoyl)-2-fluoro-phenyl]methoxy]isothiazole-4-carboxamide]

Source: patent US20260217698A1 (BEYANG THERAPEUTICS CO., LTD., priority 2022, published 2026)
